Test results reported in patent US9096544B2, “Therapeutic compounds” (Wayne State University, priority 2009, dated 2015).

Experiments:
FFMA-AML cells [1] = assay: Test B: apoptosis of FFMA-AML cells (acridine orange/ethidium bromide, nuclear fragmentation); format: cell-based, human; conditions: for EC50: Homo sapiens, nuclear fragmentation, FIG. 2A/B (96 h), read-out: ED50 of apoptosis induction
Procedure: FIG. 2 illustrates apoptosis induction in FFMA-AML and TF(v-SRC) cells by 3-Cl-AHPC and compound 16. Cells were seeded at 1×10^4 cells/ml, grown for 24 h and then exposed to 1 μM compound 16 or 3-Cl-AHPC A) at various concentrations of the compound for 96 h and B) for increasing times of exposure. C) Induction of apoptosis by 3-Cl-AHPC, all-trans-retinoic acid, 9-cis-retinoic acid and TTNPB in FFMA-AML and TF(v-SRC) cells. The percentage of apoptotic cells was determined using acridine orange and ethidium bromide staining to determine nuclear fragmentation as described in the general biochemical and pharmacological materials and methods. The error bars represent the mean of three separate determinations +/− the standard deviation (SD).
FFMA-AML cells were obtained from a patient with a diagnosis of AML as indicated by the immunophenotyping described in Table 1. This patient was refractory to the chemotherapy regimens consisting of cytosine arabinoside given with daunomycin as well as high-dose cytosine arabinoside. Peripheral blood samples were obtained from the patient utilizing a Wayne State University Institutional Review Board approved protocol and the leukemic blasts were isolated utilizing Ficoll hypaque. […]
(§1) Apoptosis of cells was determined by (1) acridine orange and ethidium bromide-staining to assess cells with nuclear fragmentation and chromatin condensation as previously described (Farhana L. et al., Cancer Res. 2006; 65:4909-4917) and (2) flow cytometry assessing Annexin V-FITC binding together with propidium iodide staining (Annexin V-FITC apoptosis Detection kit 1, BD Biosciences, San Diego, Calif.). Data acquisition was done on a FACS Calibur flow cytometer (BD) and analyzed with CellQuest software. […]

FFMA-AML cells [2] = assay: Annexin V-FITC binding by flow cytometry, FFMA-AML cells; format: cell-based, human; conditions: 1 μM, varying times
Procedure: FIG. 3 illustrates the induction of apoptosis and cell death as assessed using Annexin V-FITC binding together with propidium iodide (PI) staining. FFMA-AML and TF(vSRC) cells were exposed to 1 μM 3-Cl-AHPC or compound 16. A) Apoptosis in FFMA-AML and TF(vSRC) cells following 24 and 48 h ARR exposure, respectively. The plots show the distribution of classes of fluorescence intensity versus cell number. The bottom left quadrant represents live cells (both annexin V-FITC and PI negative); the bottom right quadrant represents early apoptotic cells (annexin V-FITC positive but PI negative); and the top right quadrant represents late apoptotic cells (both annexin V-FITC and PI positive). B) Percentage of early apopotic Annexin V-positive cells at the indicated times. […] (p values of <0.05, <0.01 and <0.001 respectively, as determined by the t test).
as §1

COLO357 cells = assay: Test I: growth inhibition of COLO357 cells (MTT); format: cell-based; conditions: 1 μM
Procedure: (§2) Pancreatic cancer cell lines (COLO357, PANC-1, Capan-2, AsPc-1 cells and MiaPaCa-2 cells obtained from American Type Culture Collection; ATCC, Rockville, Md.) were treated with 1 μM 3-Cl-AHPC and compound 16 for various times. Apoptosis in cells were analyzed by flow cytometry using Annexin V-FITC binding together with propidium iodide (PI) staining (Annexin V-FITC apoptosis Detection Kit 1, BD Biosciences, San Diego, Calif.). Data acquisition was done on a FACS Calibur flow cytometer (BD) and analyzed with CellQuest software (BD Biosciences). 3-Cl-AHPC and compound 16 mediated inhibition of cell growth were determined by 3-(4,5-dimethylthiazol-2-yl)-2,5-diphenyltetrazolium bromide (MTT) assay. The cells were seeded on 96-well plates at a density of 4×10^4 cells/well in a volume of 200 μl culture medium. 1 μM AHP3 and 3-Cl-AHPC in DMSO (final concentration 0.1%) were added to the cells for various times. […] After discarding the medium, MTT precipitates were solubilized with 200 μl DMSO and the plates read on a BioTeK Synergy HT (BioTeK Instrument Inc., Vermont) at an absorbance 570 nm. […] The spheroids were stained with acridine orange/ethidium bromide staining and immediately visualized and photographed with fluorescence microscope (OLYMPUS CKX41). […] Then spheroids were visualized and photographed with a fluorescence microscope.

PANC-1 cells = assay: Test I: growth inhibition of PANC-1 cells (MTT); format: cell-based; conditions: 1 μM
Procedure: as §2

Capan-2 cells = assay: Test I: growth inhibition of Capan-2 cells (MTT); format: cell-based; conditions: 1 μM
Procedure: as §2

Compound | cells displaying apoptosis (FFMA-AML cells [1]; FIG. 2C, retinoid values over that noted with the vehicle) [%] | EC50 (FFMA-AML cells [1]) [nM] | annexin V-FITC-positive cells (FFMA-AML cells [2]) | inhibition of growth (COLO357 cells) | inhibition of growth (PANC-1 cells) | inhibition of growth (Capan-2 cells)
O=C(O)C=Cc1ccc(-c2ccc(O)c(C34CC5CC(CC(C5)C3)C4)c2)c(Cl)c1 [Compound 3-Cl-AHPC, 4-[3-(1-adamantyl)-4-hydroxyphenyl]-3-chlorocinnamic acid, reference compound] | 80 | 370 | progressive increase in annexin V-FITC-positive cells with time | significant inhibition of growth | significant inhibition of growth | significant inhibition of growth
O=C(O)/C=C/c1cnc(-c2ccc(O)c(C34CC5CC(CC(C5)C3)C4)c2)nc1 [Compound 16, (E)-3-[2-(3-(1-Adamantyl)-4-hydroxyphenyl)-5-pyrimidinyl]-2-propenoic acid] |  | 320 | progressive increase in annexin V-FITC-positive cells with time | significant inhibition of growth | significant inhibition of growth | significant inhibition of growth
